Here are results for 42 molecules from the Kinase Knowledgebase extract (Sharma et al. 2016).

Some results are limits rather than exact numbers.

One assay deals with MAPK14 (UniProt Q16539). The assay can be described thus: Inhibition of MAPK14 Kinase Activity.
Chain of MAPK14 (Q16539 whole entry, looked up): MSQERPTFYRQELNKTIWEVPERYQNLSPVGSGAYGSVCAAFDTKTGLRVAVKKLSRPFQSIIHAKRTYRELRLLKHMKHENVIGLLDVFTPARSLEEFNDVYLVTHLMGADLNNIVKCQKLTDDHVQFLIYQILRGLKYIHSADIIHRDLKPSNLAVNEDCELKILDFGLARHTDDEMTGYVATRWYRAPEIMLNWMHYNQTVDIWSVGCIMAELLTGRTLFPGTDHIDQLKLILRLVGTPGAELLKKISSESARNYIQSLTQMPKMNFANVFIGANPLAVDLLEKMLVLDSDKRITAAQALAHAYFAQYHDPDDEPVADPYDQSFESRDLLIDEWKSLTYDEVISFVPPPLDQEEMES
The molecule `CC1(c2cc(NC(=O)Nc3ccccc3)n(-c3ccccc3)n2)CCCCC1` yielded a Kd of 22 nM. On the same count and under the same terms, in the case of `CC(C)(C)c1cc(NC(=O)Nc2ccncc2)n(-c2ccccc2)n1` it was 1200 nM.

In turn, `Cc1ccc(-n2nc(C(C)(C)C)cc2NC(=O)Nc2ccccc2)cc1C` returned a Kd of 4 nM. Still for that read-out and setting: in the case of `Cc1ccc(-n2nc(C(C)(C)C)cc2NC(=O)Nc2ccccc2)cc1` it was 3 nM; in that of `O=C(Nc1ccccc1)Nc1cc(C2CCCCC2)nn1-c1ccccc1`, more than 400 nM. The same measure, in the same setting: with `CC(C)c1cc(NC(=O)Nc2ccccc2)n(-c2ccccc2)n1` the figure was 330 nM; with `Cc1ccc(-n2nc(C(C)(C)C)cc2NC(=O)Nc2ccccc2F)cc1`, 14 nM. On the same count and under the same terms, with `CC(C)(C)c1cc(NC(=O)Nc2ccccn2)n(-c2ccccc2)n1` the figure was 400 nM; with `CC(C)(C)c1cc(NC(=O)Nc2cccnc2)n(-c2ccccc2)n1`, 420 nM.

The molecule `CC(C)(c1ccccc1)c1cc(NC(=O)Nc2ccccc2)n(-c2ccccc2)n1` gave a dissociation constant Kd of 760 nM. Same read-out and setting: with `COCC(C)(C)c1cc(NC(=O)Nc2ccccc2)n(-c2ccccc2)n1` the figure was 1400 nM; with `CC(C)(C)c1cc(NC(=O)NCc2ccccc2)n(-c2ccccc2)n1`, 47 nM.

The molecule `CC(C)(C)c1cc(NC(=O)Nc2ccccc2)n(C2CCCCC2)n1` registered a Kd of 500 nM.

In the case of `CC(C)(C)c1cc(NC(N)=O)n(-c2ccccc2)n1`, the Kd is more than 7000 nM. The same measure, in the same setting: in the case of `Cc1cc(NC(=O)Nc2ccccc2)n(-c2ccccc2)n1` it was more than 7000 nM; in that of `COc1cccc(-n2nc(C(C)(C)C)cc2NC(=O)Nc2ccccc2)c1`, 19 nM. The same measure, in the same setting: with `CC(C)(C)c1cc(NC(=O)NC2CCCCC2)n(-c2ccccc2)n1` the figure was 130 nM; with `CC(C)(C)c1cc(NC(=O)Nc2ccccc2)n(-c2ccccc2)n1`, 13 nM; with `COc1ccc(-n2nc(C(C)(C)C)cc2NC(=O)Nc2ccccc2)cc1`, 31 nM. On the same count and under the same terms, in the case of `Cc1ccc(-n2nc(C(C)(C)C)cc2NC(=O)Nc2cccc3ccccc23)cc1` it was 1 nM; in that of `CC(C)(C)c1cc(NC(=O)Nc2ccc(N)cc2)n(-c2ccccc2)n1`, 318 nM.

The molecule `CCC(C)(C)c1cc(NC(=O)Nc2ccccc2)n(-c2ccccc2)n1` came in with a dissociation constant (Kd) of 12 nM. Same read-out and setting: in the case of `Cc1cccc(NC(=O)Nc2cc(C(C)(C)C)nn2-c2ccccc2)c1C` it was 3 nM; in that of `CC(C)(C)c1cc(NC(=O)NCCc2ccccc2)n(-c2ccccc2)n1`, 260 nM. The same measure, in the same setting: in the case of `CC(C)(C)c1cc(NC(=O)Nc2cccc3ccccc23)n(-c2ccccc2)n1` it was 5 nM; in that of `CC(C)(C)c1cc(NC(=O)Nc2ccc(Cl)cc2)n(-c2ccccc2)n1`, 8 nM; in that of `CC1(c2cc(NC(=O)Nc3ccccc3)n(-c3ccccc3)n2)CCOCC1`, 280 nM.

The molecule `CC(C)(C)c1cc(NC(=O)Nc2ccccc2)n(-c2ccncc2)n1` registered a Kd of 21 nM. Molecule `Cc1cccc(-n2nc(C(C)(C)C)cc2NC(=O)Nc2ccccc2)c1` registered a Kd of 2 nM. Same read-out and setting: in the case of `CC(C)(C)c1cc(NC(=O)Nc2ccccc2)n(-c2ccc(N)cc2)n1` it was 7 nM; in that of `Cc1ccccc1-n1nc(C(C)(C)C)cc1NC(=O)Nc1ccccc1`, 200 nM; in that of `CC(C)(C)c1cc(NC(=O)Nc2cccc(N)c2)n(-c2ccccc2)n1`, 100 nM. Same read-out and setting: with `CC(C)(C)c1cc(NC(=O)NC2Cc3ccccc3C2)n(-c2ccccc2)n1` the figure was 14 nM; with `CC(C)(C)c1cc(NC(=O)Nc2ccccc2)n(-c2ccc3ccccc3c2)n1`, 8 nM.

For a further assay, the target named is CDK2 (UniProt P24941). Briefly: Enzyme Assay.
Turning to `O=C1Nc2ccc(Br)cc2C1=NNc1ccccc1`, the IC50 is more than 10000 nM.

Turning to `CN(C)S(=O)(=O)c1ccc(NN=C2C(=O)Nc3ccc(O)cc32)cc1`, the IC50 is 10 nM.

Regarding `CN1CCC(c2c(O)cc(O)c3c2O/C(=C\c2ccc(S(N)(=O)=O)cc2)C3=O)CC1`, the IC50 was 30 nM. On the same count and under the same terms, with `CN1CCC(c2c(O)cc(O)c3c2O/C(=C\c2ccc([N+](=O)[O-])cc2)C3=O)CC1` the figure was 310 nM. For the molecule `O=C1Nc2ccccc2C1=NNc1ccccc1`, the IC50 is more than 10000 nM. On the same count and under the same terms, in the case of `CN1CCC(c2c(O)cc(O)c3c2O/C(=C\c2ccccc2Cl)C3=O)CC1` it was 3970 nM; in that of `COc1ccc2c(c1)C(=NNc1ccccc1)C(=O)N2`, more than 10000 nM; in that of `CN1CCC(c2c(O)cc(O)c3c2O/C(=C\c2ccccc2)C3=O)CC1`, 1280 nM.
